The source of these data is patent publication US20040101915A1, “Diagnosis and treatment of chemoresistant tumors” (IRM LLC, a Delaware Limited Liability Company, priority 2002, published 2004).

The test system of assay [1] is K422 cells. Nature of the assay: MTT cytotoxicity assay, K422 cells. The class given is cell-based, human. The following applies: for difference in IC50 concentrations in K422 cells compared to the other cell lines tested: 24 hours, MTT, other lines DOHH2, Jurkat, Jurkat bcl-2, RL-7. The method, then:
An MTT cytotoxicity assay was used to determine the number of viable cells following treatment with various apoptotic stimuli. Cells (100 μl of a 8×10^5 cells/ml suspension) were added to each well of a 96 well plate and incubated with etoposide or doxorubicin for 24-72 h. MTT dye solution was then added for 4 h, the blue crystal product was solubilized over night at 37° C. and absorbance was measured at 570 nm. Because the MTT assay also measures growth arrest, the MTT results were verified with caspase activity assays.
In general terms: Formazan colour is commonly taken as a measure of viable cells.

In another assay the test system is RL-7 cells. In words: MTT cytotoxicity assay, RL-7 cells. Particulars: etoposide 0.425 μM 4 hours then agonistic anti-DR5 antibodies 12 hours. The assay is classed as cell-based, human.
Another assay relates to DOHH2 cells. Nature of the assay: MTT cytotoxicity assay, DOHH2 cells. The class given is cell-based, human. Particulars: etoposide 0.425 μM 4 hours then agonistic anti-DR5 antibodies 12 hours, compared to drug or antibody alone.
The test system of assay [2] is DR5 protein levels in DOHH2 cells. Particulars: 4.25 μM etoposide, Western blot. For orientation: A western blot detects proteins with antibodies after separation by electrophoresis.
Experimental: Western blot analysis was used to evaluate protein expression. Cells (2.4×10^6 well) were seeded in 6 well plates and treated with the respective apoptosis stimuli. After the indicated time periods cells were washes in ice cold PBS and lysed in 1% Triton X-100 containing hypotonic lysis buffer (20 mM HEPES pH 7.5, 10 mM KCl, 1.5 mM MgCl2, 1 mM EDTA and 1 mM DTT). Protein (40 μg) was electorphoresed under reducing conditions on 10-20% gradient SDS-polyacrylamide gels. After electroblotting on nitrocellulose membranes (Schleicher and Schuell) the membranes were blocked for 1 h with 10% non-fat milk powder and immunoblotted for 1 h with the following primary antibodies: rabbit anti-DR5 polyclonal antibody (1:500, Cayman Chemicals), mouse anti-Fas monoclonal antibody CH-11 (MBL), rabbit anti-caspase-3 polyclonal antibody (1:1000, Pharmingen), rabbit anti-caspase-8 polyclonal antibody (1:1000, Pharmingen), mouse anti-caspase-9 monoclonal antibody 5B4 (1:1000, MBL), mouse anti-bcl-2 monoclonal antibody (1:500, Pharmingen) or goat anti-actin polyclonal antibody (1:200, Santa Cruz Biotechnology). Membranes were washed five times with TBS/0.05% Tween, incubated with the respective peroxidase conjugated affinity purified secondary antibody (1:5000, Biorad) for 30 min, washed again five times and developed using enhanced chemiluminescence (ECL, Amersham).
For assay [3], the system named is K422 cells. Nature of the assay: Caspase activity assay (AFC release from DEVD-AFC) in lysates of treated cells. The assay is classed as cell-based, human. Particulars: 100 nM. The method, then: Caspase activities were assayed as previously described (Stennicke and Salvesen, 2000) at 37° C. in 40 μl of caspase buffer (50 mM HEPES pH 7.4, 100 mM NaCl, 10% sucrose, 1 mM EDTA, 0.1% CHAPS and 10 mM DTT) containing 100 μM of the fluorogenic peptide Ac-DEVD-AFC. Activity was measured continuously over the indicated time by the release of AFC from DEVD-AFC using a Molecular Devices fluorometer in the kinetic mode and with the 405-510 filter pair. For the assessment of caspase activity in intact cells after treatment with different apoptosis stimuli 10-20 μg of total cell protein (Triton X-100 extracts) was used in 40 μl of caspase buffer (containing 100 μM DEVD-AFC). For in-vitro initiation of caspase activity by cytochrome c Triton X-100 free, hypotonic cytosolic extracts were prepared and 10 μM horse heart cytochrome c (Sigma) together with 1 mM dATP or recombinant active caspase-8 (20 nM) were used for caspase activation (Deveraux et al., 1997). For reconstitution of RL-7 hypotonic cell extracts recombinant pro-caspase-3 was used as previously described (Stennicke et al., 1998).

The subject of assay [4] is K422 cells. In words: Western blot analysis of caspase processing in treated FL cells. Particulars: 100 nM; for processing of caspase-8: DOHH2, K422 and RL-7; for caspase processing of the caspases-2, -3, -7 and -9: K422 versus DOHH2 and RL-7. The class given is cell-based, human. The text has this:
Western blot analysis was used to evaluate protein expression.

Assay [5] deals with K422 cells. In words: Morphological examination of treated FL cells. The class given is cell-based, human. The following applies: FL cells DOHH2, K422, RL-7.
A further assay deals with NCI 60 tumor cell panel. Particulars: NCI database; cited from earlier work.

Turning to `COc1cc([C@@H]2c3cc4c(cc3[C@@H](O[C@@H]3O[C@@H]5CO[C@@H](C)O[C@H]5[C@H](O)[C@H]3O)[C@H]3COC(=O)[C@H]23)OCO4)cc(OC)c1O` [etoposide], the “effect of etoposide pretreatment on apoptosis induced by anti-DR5 antibody” value is recorded as “negligible effect” in the assay on K422 cells [1] (K422, etoposide 0.425 μM 4 hours then agonistic anti-DR5 antibodies 12 hours); “negligible effect” with RL-7 cells; “significantly increased apoptosis” in the assay with DOHH2 cells. Moreover, the “DR5 protein levels following exposure” value in assay [2] was “significantly increased”.

For the compound `COc1cccc2c1C(=O)c1c(O)c3c(c(O)c1C2=O)C[C@@](O)(C(=O)CO)C[C@@H]3O[C@H]1C[C@H](N)[C@H](O)[C@H](C)O1` [doxorubicin], the “DR5 protein levels following exposure” value in assay [2] is listed as “significantly increased”.

For the compound `CO[C@@H]1[C@H]([N+](C)(C)C)CC2O[C@]1(C)n1c3ccccc3c3c4c(c5c6ccccc6n2c5c31)C(=O)NC4` [Staur-F3], in the assay on K422 cells [1], the “difference in IC50 concentrations in K422 cells compared to the other cell lines tested” value is reported as 25 fold. Further, the “caspase activation (enzymatic activity)” value with K422 cells [3] was “induced caspase activation”. Besides, in the assay on K422 cells [4], the “processing of caspase-8” value is on record as “remained unprocessed in all of the cell lines”; the “caspase processing of the caspases-2, -3, -7 and -9” value is “only in K422 but not DOHH2 or the caspase-3 deficient RL-7 cells”. Moreover, in the assay with K422 cells [5], the “classical features of apoptosis (morphology)” value is “only K422 exhibited the classical features of apoptosis”.

As for `C[C@H]1CCC/C=C/[C@@H]2C[C@H](O)C[C@H]2[C@H](O)/C=C/C(=O)O1` [Brefeldin A], the “difference in IC50 concentrations in K422 cells compared to the other cell lines tested” value with K422 cells [1] turned out to be 6 fold. Also, the “caspase activation (enzymatic activity)” value with K422 cells [3] is “induced caspase activation”. Also, in the assay on K422 cells [4], the “processing of caspase-8” value is listed as “remained unprocessed in all of the cell lines”; the “caspase processing of the caspases-2, -3, -7 and -9” value is recorded as “only in K422 but not DOHH2 or the caspase-3 deficient RL-7 cells”. Moreover, the “classical features of apoptosis (morphology)” value in the assay with K422 cells [5] is given as “only K422 exhibited the classical features of apoptosis”. In addition, the “sensitivity of NCI 60 tumor cell panel” value with NCI 60 tumor cell panel is given as “one of the most sensitive cell lines is NCI/ADR”.
